Data reported in ChEMBL document CHEMBL1155091, “Structure, antimicrobial activity and DNA-binding properties of the cobalt(II)-sparfloxacin complex” (2008).
Converted amounts (≈) assume the structure as drawn.

Legend:
Escherichia coli = test: Antimicrobial activity against Escherichia coli; format: functional
Staphylococcus aureus = test: Antimicrobial activity against Staphylococcus aureus; format: functional
Pseudomonas aeruginosa = test: Antimicrobial activity against Pseudomonas aeruginosa; format: functional
DNA = test: Binding affinity to calf thymus DNA; format: nucleic-acid assay; settings: Bos taurus

MIC (Escherichia coli): 8 mg/L (≈ 20.4 µM)
MIC (Staphylococcus aureus): 0.5 mg/L (≈ 1.27 µM)
MIC (Pseudomonas aeruginosa): 0.25 mg/L (≈ 0.637 µM)
Kb (DNA): 17100 M⁻¹
Structure (SMILES): C[C@@H]1CN(c2c(F)c(N)c3c(=O)c(C(=O)O)cn(C4CC4)c3c2F)C[C@H](C)N1 [SPARFLOXACIN]
